Experimental data reported in patent publication US7335814B2, “Transgenic cells expressing glucosyltransferase nucleic acids” (The University of York, priority 2000, dated 2008).

How the values were obtained:
Format in all cases: biochemical
[1] = target: T1, UGT71C1 (Arabidopsis thaliana, UniProt O82381); assay: UGT71C1 glucosyltransferase specific activity towards phenolic compounds (reverse-phase HPLC); conditions: 1 mM phenolic compound, 5 mM UDP-glucose, 50 mM TRIS-HCl pH 7.0, 30° C., 30 min; mean of three replicates ± standard deviation
T1 construct: GST (N); made in house; host or cells: E. coli
T1 sequence (O82381 1-481): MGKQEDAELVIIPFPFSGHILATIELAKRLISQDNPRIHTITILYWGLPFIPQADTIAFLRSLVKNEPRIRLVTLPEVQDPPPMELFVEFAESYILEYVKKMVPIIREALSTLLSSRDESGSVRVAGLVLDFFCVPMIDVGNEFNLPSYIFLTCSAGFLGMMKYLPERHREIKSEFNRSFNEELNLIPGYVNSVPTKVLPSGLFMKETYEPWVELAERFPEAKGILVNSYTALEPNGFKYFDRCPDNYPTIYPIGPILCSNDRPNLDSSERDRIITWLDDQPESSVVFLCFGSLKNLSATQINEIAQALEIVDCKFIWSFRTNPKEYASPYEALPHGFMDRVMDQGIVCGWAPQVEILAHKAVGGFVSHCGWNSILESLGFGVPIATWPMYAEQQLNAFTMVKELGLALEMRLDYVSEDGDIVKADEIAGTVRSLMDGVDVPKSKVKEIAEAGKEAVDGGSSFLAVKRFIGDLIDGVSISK

[2] = target: T2, recombinant GTase A962 (Arabidopsis thaliana, UniProt O82382); assay: Specific activity of recombinant GTase producing O-glucosides against lignin precursors (HPLC); conditions: 30° C.; ND = not detected
T2 construct: made in house; host or cells: E. coli
T2 sequence (O82382 1-474): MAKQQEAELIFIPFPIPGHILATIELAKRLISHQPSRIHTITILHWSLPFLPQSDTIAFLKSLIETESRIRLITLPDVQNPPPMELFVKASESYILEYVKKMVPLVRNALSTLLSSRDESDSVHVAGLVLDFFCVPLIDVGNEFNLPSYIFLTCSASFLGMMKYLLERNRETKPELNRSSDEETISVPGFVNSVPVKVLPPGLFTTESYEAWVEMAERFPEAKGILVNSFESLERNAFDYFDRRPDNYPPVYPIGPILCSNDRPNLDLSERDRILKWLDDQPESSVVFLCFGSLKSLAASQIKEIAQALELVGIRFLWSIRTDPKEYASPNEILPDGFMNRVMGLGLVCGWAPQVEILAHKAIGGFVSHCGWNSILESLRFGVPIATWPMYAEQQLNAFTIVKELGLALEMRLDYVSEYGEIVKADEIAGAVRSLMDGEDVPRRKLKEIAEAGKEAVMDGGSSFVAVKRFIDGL

[3] = target: T3, recombinant GTase A119 (Arabidopsis thaliana, UniProt Q9LVR1); assay: as above; conditions: 30° C.; ND = not detected
T3 construct: made in house; host or cells: E. coli
T3 sequence (Q9LVR1 1-481): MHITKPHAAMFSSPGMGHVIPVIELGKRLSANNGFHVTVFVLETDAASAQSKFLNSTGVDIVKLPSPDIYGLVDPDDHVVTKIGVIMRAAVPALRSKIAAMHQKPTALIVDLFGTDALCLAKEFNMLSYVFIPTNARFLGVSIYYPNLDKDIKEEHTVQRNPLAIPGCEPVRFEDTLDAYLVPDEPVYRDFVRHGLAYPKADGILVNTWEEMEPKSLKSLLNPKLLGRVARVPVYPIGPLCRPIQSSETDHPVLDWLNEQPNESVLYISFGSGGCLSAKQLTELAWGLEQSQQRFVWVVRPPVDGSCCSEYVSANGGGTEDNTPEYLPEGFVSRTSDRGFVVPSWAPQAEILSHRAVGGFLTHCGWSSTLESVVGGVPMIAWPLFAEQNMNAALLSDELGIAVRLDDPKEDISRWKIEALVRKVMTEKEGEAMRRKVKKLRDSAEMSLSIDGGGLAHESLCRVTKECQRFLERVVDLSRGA

[4] = target: T4, recombinant GTase A961 (Arabidopsis thaliana, UniProt O82381); assay: as above; conditions: 30° C.; ND = not detected
T4 construct: made in house; host or cells: E. coli
T4 sequence (O82381 1-481): T1 sequence (O82381 1-481)

[5] = target: T5, recombinant GTase A062 (Arabidopsis thaliana, UniProt Q9LR44); assay: Specific activity of recombinant GTase producing glucose ester against lignin precursors (HPLC); conditions: 0.5 ml of potential substrates, 5 mM UDPG, 0.2 μg GTase, 200 μl, 20° C., 30 min
T5 construct: made in house; host or cells: E. coli
T5 sequence (Q9LR44 1-469): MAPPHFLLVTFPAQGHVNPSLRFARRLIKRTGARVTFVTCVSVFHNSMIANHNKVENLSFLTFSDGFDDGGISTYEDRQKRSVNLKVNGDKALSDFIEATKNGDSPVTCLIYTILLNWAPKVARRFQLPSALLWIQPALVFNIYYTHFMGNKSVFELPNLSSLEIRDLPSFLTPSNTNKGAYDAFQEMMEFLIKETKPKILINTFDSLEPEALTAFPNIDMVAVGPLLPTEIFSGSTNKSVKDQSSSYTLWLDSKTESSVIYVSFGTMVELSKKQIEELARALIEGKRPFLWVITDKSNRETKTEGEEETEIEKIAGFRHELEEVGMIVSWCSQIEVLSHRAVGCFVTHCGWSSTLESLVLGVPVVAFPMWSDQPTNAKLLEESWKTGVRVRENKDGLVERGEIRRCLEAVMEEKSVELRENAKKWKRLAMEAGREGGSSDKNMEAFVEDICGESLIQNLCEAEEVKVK

[6] = target: T6, recombinant GTase A407 (Arabidopsis thaliana, UniProt O81498); assay: Specific activity of recombinant GTase producing O-glucosides against lignin precursors (HPLC); conditions: 30° C.; ND = not detected
T6 construct: made in house; host or cells: E. coli
T6 sequence (O81498 1-481): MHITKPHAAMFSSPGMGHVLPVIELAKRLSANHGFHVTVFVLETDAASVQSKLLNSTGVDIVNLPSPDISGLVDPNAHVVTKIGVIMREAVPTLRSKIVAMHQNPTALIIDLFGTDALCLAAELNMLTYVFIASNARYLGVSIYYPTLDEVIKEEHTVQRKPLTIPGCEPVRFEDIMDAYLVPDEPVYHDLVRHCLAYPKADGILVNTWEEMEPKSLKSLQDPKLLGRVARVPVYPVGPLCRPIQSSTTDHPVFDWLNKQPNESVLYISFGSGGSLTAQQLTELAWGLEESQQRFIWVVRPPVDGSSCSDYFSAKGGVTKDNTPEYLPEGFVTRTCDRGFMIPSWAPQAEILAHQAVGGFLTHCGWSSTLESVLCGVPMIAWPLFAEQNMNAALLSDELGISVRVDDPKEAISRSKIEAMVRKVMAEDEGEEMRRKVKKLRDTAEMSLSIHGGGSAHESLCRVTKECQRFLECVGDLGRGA

[7] = target: T7, recombinant GTase A233 (Arabidopsis thaliana, UniProt Q8W491); assay: as above; conditions: 30° C.; ND = not detected
T7 construct: made in house; host or cells: E. coli

[8] = target: T8, recombinant GTase A41 (Arabidopsis thaliana, UniProt Q5XF20); assay: Specific activity of recombinant GTase producing glucose ester against lignin precursors (HPLC); conditions: 5 mM UDPG, 0.2 μg GTase, 200 μl, 20° C., 30 min
T8 construct: made in house; host or cells: E. coli
T8 sequence (Q5XF20 7-490): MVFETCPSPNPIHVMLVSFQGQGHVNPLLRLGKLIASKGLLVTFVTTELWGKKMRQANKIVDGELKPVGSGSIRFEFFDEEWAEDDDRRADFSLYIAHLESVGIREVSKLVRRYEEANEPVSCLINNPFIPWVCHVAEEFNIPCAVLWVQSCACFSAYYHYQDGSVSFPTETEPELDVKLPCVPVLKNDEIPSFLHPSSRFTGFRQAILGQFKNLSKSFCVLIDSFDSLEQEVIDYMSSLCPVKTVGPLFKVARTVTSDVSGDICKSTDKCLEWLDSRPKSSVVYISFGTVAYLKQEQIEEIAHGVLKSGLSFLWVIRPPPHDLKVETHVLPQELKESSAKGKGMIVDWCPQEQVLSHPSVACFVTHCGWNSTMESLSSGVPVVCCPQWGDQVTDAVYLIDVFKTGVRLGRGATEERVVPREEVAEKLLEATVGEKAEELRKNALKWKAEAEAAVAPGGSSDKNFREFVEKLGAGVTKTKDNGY

[9] = target: T9, recombinant GTase A43 (Arabidopsis thaliana, UniProt O23402); assay: as above; conditions: 0.5 ml of potential substrates, 5 mM UDPG, 0.2 μg GTase, 200 μl, 20° C., 30 min
T9 construct: made in house; host or cells: E. coli

[10] = target: T10, recombinant GTase A911 (Arabidopsis thaliana, UniProt O22182); assay: as above; parameters: made in house; host or cells: E. coli; conditions: 0.5 ml of potential substrates, 5 mM UDPG, 0.2 μg GTase, 200 μl, 20° C., 30 min
T10 sequence (O22182 1-456): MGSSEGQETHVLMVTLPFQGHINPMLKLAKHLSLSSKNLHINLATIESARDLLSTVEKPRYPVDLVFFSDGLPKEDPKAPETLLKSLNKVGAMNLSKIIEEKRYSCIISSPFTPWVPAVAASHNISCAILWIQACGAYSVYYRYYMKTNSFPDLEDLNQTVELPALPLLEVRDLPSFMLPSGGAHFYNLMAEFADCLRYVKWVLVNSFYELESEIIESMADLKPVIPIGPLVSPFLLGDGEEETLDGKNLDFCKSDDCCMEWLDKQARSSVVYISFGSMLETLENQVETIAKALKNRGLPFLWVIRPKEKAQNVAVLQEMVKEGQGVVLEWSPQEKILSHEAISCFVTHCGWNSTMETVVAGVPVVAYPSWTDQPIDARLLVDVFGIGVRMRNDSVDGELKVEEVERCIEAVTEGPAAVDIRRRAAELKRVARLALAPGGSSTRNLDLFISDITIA

O=c1ccc2cc(O)c(O)cc2o1 [Esculetin]
Specific activity (UGT71C1) [1]: 34.8 ± 4.2 nkat/mg

COc1cc(/C=C/C=O)cc(OC)c1O [sinapyl aldehyde]
Specific activity of A962 (substrate converted to 4-O-glucoside) [2]: 0.50 nkat/mg
Specific activity of A119 (substrate converted to 4-O-glucoside) [3]: 4.55 nkat/mg
Specific activity of A961 (substrate converted to 4-O-glucoside) [4]: 0.57 nkat/mg

COc1cc(/C=C/C(=O)O)cc(OC)c1O [Sinapic acid, sinapic acid]
Specific activity of A962 (substrate converted to 4-O-glucoside) [2]: 0.01 nkat/mg
Specific activity of A062 (substrate converted to glucose ester) [5]: 0.1 nkat/mg
Specific activity of A407 (substrate converted to 4-O-glucoside) [6]: 65.39 nkat/mg
Specific activity of A233 (substrate converted to 4-O-glucoside) [7]: 0.39 nkat/mg
Specific activity of A41 (substrate converted to glucose ester) [8]: 5.35 nkat/mg
Specific activity (UGT71C1) [1]: 0 nkat/mg
Specific activity of A43 (substrate converted to glucose ester) [9]: 0.05 nkat/mg
Specific activity of A961 (substrate converted to 4-O-glucoside) [4]: 0.01 nkat/mg
Specific activity of A911 (substrate converted to glucose ester) [10]: 0.15 nkat/mg

COc1cc(/C=C/CO)cc(OC)c1O [sinapyl alcohol]
Specific activity of A962 (substrate converted to 4-O-glucoside) [2]: 0.45 nkat/mg
Specific activity of A407 (substrate converted to 4-O-glucoside) [6]: 114.76 nkat/mg
Specific activity of A233 (substrate converted to 4-O-glucoside) [7]: 0.05 nkat/mg
Specific activity of A119 (substrate converted to 4-O-glucoside) [3]: 126.16 nkat/mg
Specific activity of A961 (substrate converted to 4-O-glucoside) [4]: 0.35 nkat/mg

COc1cc2ccc(=O)oc2cc1O [Scopoletin]
Specific activity (UGT71C1) [1]: 29.4 ± 3.9 nkat/mg

COc1cc(/C=C/C=O)ccc1O [Coniferyl aldehyde, coniferyl aldehyde]
Specific activity of A962 (substrate converted to 4-O-glucoside) [2]: 0.34 nkat/mg
Specific activity of A119 (substrate converted to 4-O-glucoside) [3]: 1.08 nkat/mg
Specific activity of A961 (substrate converted to 4-O-glucoside) [4]: 0.16 nkat/mg

O=C(O)/C=C/c1cccc(O)c1 [m-Coumaric acid]
Specific activity (UGT71C1) [1]: 1.2 ± 0.2 nkat/mg

Catechin
Specific activity (UGT71C1) [1]: 0 nkat/mg

COc1cc(/C=C/CO)ccc1O [Coniferyl alcohol, coniferyl alcohol]
Specific activity of A962 (substrate converted to 4-O-glucoside) [2]: 0.49 nkat/mg
Specific activity of A407 (substrate converted to 4-O-glucoside) [6]: 2.78 nkat/mg
Specific activity of A233 (substrate converted to 4-O-glucoside) [7]: 0.46 nkat/mg
Specific activity of A961 (substrate converted to 4-O-glucoside) [4]: 0.57 nkat/mg

O=C1C[C@@H](c2ccc(O)c(O)c2)Oc2cc(O)cc(O)c21 [Eriodictyol]
Specific activity (UGT71C1) [1]: 0 nkat/mg

O=C(O)c1ccc(O)c(O)c1 [3,4-dihydroxybenzoic acid]
Specific activity (UGT71C1) [1]: 0 nkat/mg

O=C/C=C/c1ccc(O)cc1 [p-coumaryl aldehyde]
Specific activity of A962 (substrate converted to 4-O-glucoside) [2]: 0.02 nkat/mg
Specific activity of A119 (substrate converted to 4-O-glucoside) [3]: 0.03 nkat/mg
Specific activity of A961 (substrate converted to 4-O-glucoside) [4]: 0.01 nkat/mg

O=c1c(O)c(-c2ccc(O)c(O)c2)oc2cc(O)cc(O)c12 [Quercetin]
Specific activity (UGT71C1) [1]: 1.4 ± 0.4 nkat/mg

O=C(O)/C=C/c1ccccc1O [o-Coumaric acid]
Specific activity (UGT71C1) [1]: 1.5 ± 0.2 nkat/mg

O=C(O)c1ccc(O)cc1 [4-hydroxybenzoic acid]
Specific activity (UGT71C1) [1]: 0 nkat/mg

O=c1cc(-c2ccc(O)c(O)c2)oc2cc(O)cc(O)c12 [Luteolin]
Specific activity (UGT71C1) [1]: 0.7 ± 0.1 nkat/mg
